# How the values were obtained:
# 4T1 tumor = assay: Dynamic contrast enhancement of 4T1 tumor after i.v. administration; assay type: in vivo; details: pilot data, versus paramagnetic coordination complex alone
# Experimental: FIG. 5. Dynamic contrast enhancement of 4T1 tumor after i.v. admin of 1-hydroxybisphosphonate:Mn complex linked to HSP90 inhibitor as in Scheme 1C, 25 mg/kg. Graph on left depicts relative change in T1 enhancement in tumors after labeled drug (n=5) and after Mn:ETID complex alone (n=6).
# Several synthetic strategies were used for labeling small molecule drugs either directly or via polyethyleneglycol (PEG) linkers. Two lead complexes, the first with a medronate analogue (Scheme 1B) via the amine-terminated PEG linker, and the second an etidronate analogue coupled through the COOH-terminated PEG linker (Scheme 1C), have now been synthesized, characterized and studied preliminarily in vivo.
# [1] = In vivo MR imaging (biodistribution) after i.v. administration of Mn complexes; set-up: species or system mouse
# Experimental: FIG. 4A. In vivo MRI in control mouse after i.v. administration of MnNTA.
# FIG. 4B. MRI after i.v. administration of Mn:ETID (50 μL of 40 mM solution).
# In vivo behavior was tested of two relatively strong (log K1>7) ligands for Mn(II) chelation, nitrilotriacetic acid (NTA), closely related to EDTA, and […] (3,4-DBA).
# This in vivo behavior was also what is observed for the FDA-approved agent Teslascan. In the past, development of paramagnetic Mn complexes for MRI has been challenged by the inherent coordination lability of Mn(II) (e.g., Irving Williams series), resulting in the propensity of Mn(II) to be trans-metallated by other endogenous metals such as zinc in vivo. The only FDA-approved approved Mn(II) PM complex for MRI was Teslascan, which has now been discontinued. […] Contrast enhancement was therefore based on free Mn and confined to the liver.
# Enhancement of the bowel is also noted but more variable, believed to represent elimination of the coordination complex from the gallbladder into the small intestine. […]
# Finally, it is worth noting that free Mn is believed to be toxic neurologically if allowed to accumulate to high concentrations in certain neuronal populations. […] Since Mn accumulation in tissues is readily visualized with MRI, however, selective delivery of Mn-containing agents is easily monitored. […]
# [2] = FDA-approved Mn(II) agent, prior experience; cited from earlier work
# [3] = identical field strength (7T), commercial Gd(III) agent; cited from earlier work
# [4] = EDTA reference value in competition experiments; cited from earlier work
smiles,measurement,setting,value
Cc1nn(-c2ccc(C(N)=O)c(NCCCOCCOCCOCCOCCOCCCC(=O)NCCCC(O)(P(=O)(O)O)P(=O)(O)O)c2)c2c1C(=O)CC(C)(C)C2 [Scheme 1C],enhancement in 4T1 tumors,4T1 tumor,progressive accumulation of enhancement in 4T1 tumors that is greater than what is seen for the paramagnetic coordination complex alone
Cc1nn(-c2ccc(C(N)=O)c(NCCCOCCOCCOCCOCCOCCCNC(=O)CC(P(=O)(O)O)P(=O)(O)O)c2)c2c1C(=O)CC(C)(C)C2 [Scheme 1B],enhancement in 4T1 tumors,4T1 tumor,progressive accumulation of enhancement in 4T1 tumors that is greater than what is seen for the paramagnetic coordination complex alone
"O=C(O)CN(CC(=O)O)CC(=O)O [NTA, nitrilotriacetic acid]",cardiac enhancement,"[1]; after i.v. administration, indicates free Mn released into blood pool",cardiac enhancement was also seen
same,biodistribution on in vivo MR imaging,"[1]; mouse, in vivo, iv",consistent with release of free Mn and hepatocellular uptake
Cc1ncc(COP(=O)([O-])[O-])c(CN(CCN(CC(=O)[O-])Cc2c(COP(=O)([O-])[O-])cnc(C)c2[O-])CC(=O)[O-])c1[O-].[H+].[H+].[H+].[Mn+2].[Na+].[Na+].[Na+] [Teslascan],in vivo distribution behaviour,[2],"immediately distributed to the liver, releasing free Mn"
O=C([O-])CN1CCN(CC(=O)[O-])CCN([C@H](CO)[C@H](O)CO)CCN(CC(=O)[O-])CC1.[Gd+3] (racemic) [gadobutrol],r1 (relaxivity stated as equivalent),[3],5.2 mM⁻¹ s⁻¹
O=C(O)CN(CCN(CC(=O)O)CC(=O)O)CC(=O)O [EDTA],log K1,[4],26
